Test results: patent publication US20170050957A1, “4-AMINO-6-(HETEROCYCLIC)PICOLINATES AND 6-AMINO-2-(HETEROCYCLIC)PYRIMIDINE-4-CARBOXYLATES AND THEIR USE AS HERBICIDES” (Dow AgroSciences LLC, priority 2013, published 2017)
Read-outs that look alike come from different tables or passages of the source.

How the values were obtained:
[1] = test system: Key Broadleaf Weed and Crop Species; test: Post-emergent Test II herbicidal activity (Table 15); assay type: in vivo; details: post-emergence, 336 h, 14 d; for pest or weed control at 35 g/ha: 35 g ai/ha; for pest or weed control at 70 g/ha: 70 g ai/ha; for pest or weed control at 140 g/ha: 140 g ai/ha
Method: (§1) Post-emergent Test II: Seeds or nutlets of the desired test plant species were planted in Sun Gro Metro-Mix® 360 planting mixture, which typically has a pH of 6.0 to 6.8 and an organic matter content of about 30 percent, in plastic pots with a surface area of 64 square centimeters. When required to ensure good germination and healthy plants, a fungicide treatment and/or other chemical or physical treatment was applied. The plants were grown for 7-21 d in a greenhouse with an approximate 15 h photoperiod which was maintained at about 23-29° C. during the day and 22-28° C. during the night. Nutrients and water were added on a regular basis and supplemental lighting was provided with overhead metal halide 1000-Watt lamps as necessary. The plants were employed for testing when they reached the first or second true leaf stage.
(§2) A weighed amount, determined by the highest rate to be tested, of each test compound was placed in a 25 mL glass vial and was dissolved in 4 mL of a 97:3 v/v mixture of acetone and DMSO to obtain concentrated stock solutions. […] The concentrated stock solutions obtained were diluted with 20 mL of an aqueous mixture containing acetone, water, isopropyl alcohol, DMSO, Atplus 411F crop oil concentrate, and Triton® X-155 surfactant in a 48.5:39:10:1.5:1.0:0.02 v/v ratio to obtain spray solutions containing the highest application rates. Additional application rates were obtained by serial dilution of 12 mL of the high rate solution into a solution containing 2 mL of 97:3 v/v mixture of acetone and DMSO and 10 mL of an aqueous mixture containing acetone, water, isopropyl alcohol, DMSO, Atplus 411F crop oil concentrate, and Triton X-155 surfactant in a 48.5:39:10:1.5:1.0:0.02 v/v ratio to obtain 1/2×, 1/4×, 1/8× and 1/16× rates of the high rate. Compound requirements are based upon a 12 mL application volume at a rate of 187 liters per hectare (L/ha). Formulated compounds were applied to the plant material with an overhead Mandel track sprayer equipped with 8002E nozzles calibrated to deliver 187 L/ha over an application area of 0.503 square meters at a spray height of 18 inches (43 cm) above the average plant canopy height. Control plants were sprayed in the same manner with the solvent blank.
(§3) The treated plants and control plants were placed in a greenhouse as described above and watered by subirrigation to prevent wash-off of the test compounds. After 14 d, the condition of the test plants as compared with that of the untreated plants was determined visually and scored on a scale of 0 to 100 percent where 0 corresponds to no injury and 100 corresponds to complete kill.

[2] = test system: Key Grass and Sedge Weeds as well as Grass Crops; test: Post-emergent Test II herbicidal activity (Table 16); assay type: in vivo; details: post-emergence, 336 h; for pest or weed control at 35 g/ha: 35 g ai/ha; for pest or weed control at 70 g/ha: 70 g ai/ha; for pest or weed control at 140 g/ha: 140 g ai/ha
Method: as §1, §2, §3

[3] = Abutilon theophrasti, velvetleaf (Abutilon theophrasti), read-out: Visual Growth Reduction (%) 14 Days After Application, ABUTH
[4] = Amaranthus retroflexus, redroot pigweed (Amaranthus retroflexus), read-out: Visual Growth Reduction (%) 14 Days After Application, AMARE
[5] = Brassica napus, oilseed rape, canola (Brassica napus), read-out: Visual Growth Reduction (%) 14 Days After Application, BRSNN
[6] = Chenopodium album, lambsquarters (Chenopodium album), read-out: Visual Growth Reduction (%) 14 Days After Application, CHEAL
[7] = Euphorbia heterophylla, wild poinsettia (Euphorbia heterophylla), read-out: Visual Growth Reduction (%) 14 Days After Application, EPHHL
[8] = Helianthus annuus, sunflower (Helianthus annuus), read-out: Visual Growth Reduction (%) 14 Days After Application, HELAN
[9] = Cyperus esculentus, yellow nutsedge (Cyperus esculentus), 14 d, read-out: Visual Growth Reduction (%) 14 Days After Application, CYPES
[10] = Echinochloa crus-galli, barnyardgrass (Echinochloa crus-galli), 14 d, read-out: Visual Growth Reduction (%) 14 Days After Application, ECHCG
[11] = Oryza sativa, rice (Oryza sativa), 14 d, read-out: Visual Growth Reduction (%) 14 Days After Application, ORYSA
[12] = Setaria faberi, giant foxtail (Setaria faberi), 14 d, read-out: Visual Growth Reduction (%) 14 Days After Application, SETFA
[13] = Triticum aestivum, wheat, spring (Triticum aestivum), 14 d, read-out: Visual Growth Reduction (%) 14 Days After Application, TRZAS
[14] = Zea mays, maize, corn (Zea mays), 14 d, read-out: Visual Growth Reduction (%) 14 Days After Application, ZEAMX

Question: Which results are given for `COC(=O)c1nc(-c2ccc(Cl)c3cc[nH]c23)cc(N)c1Cl` [Compound 1.49]?
Answer: melting point: 186 to 188 °C; pest or weed control at 35 g/ha [1, 3]: 85 to 94%; pest or weed control at 70 g/ha [1, 3]: 85 to 94%; pest or weed control at 140 g/ha [1, 3]: 85 to 94%; pest or weed control at 35 g/ha [1, 4]: 0 to 29%; pest or weed control at 70 g/ha [1, 4]: 30 to 44%; pest or weed control at 140 g/ha [1, 4]: 0 to 29%; pest or weed control at 35 g/ha [1, 5]: 0 to 29%; pest or weed control at 70 g/ha [1, 5]: 0 to 29%; pest or weed control at 140 g/ha [1, 5]: 0 to 29%; pest or weed control at 35 g/ha [1, 6]: 85 to 94%; pest or weed control at 70 g/ha [1, 6]: 85 to 94%; pest or weed control at 140 g/ha [1, 6]: 95 to 100%; pest or weed control at 35 g/ha [1, 7]: 0 to 29%; pest or weed control at 70 g/ha [1, 7]: 0 to 29%; pest or weed control at 140 g/ha [1, 7]: 0 to 29%; pest or weed control at 35 g/ha [1, 8]: 0 to 29%; pest or weed control at 70 g/ha [1, 8]: 0 to 29%; pest or weed control at 140 g/ha [1, 8]: 45 to 59%

Question: What does the source list for `COC(=O)c1nc(-c2ccc3ccn([Si](C(C)C)(C(C)C)C(C)C)c3c2F)c(F)c(N)c1Cl` [Compound 1.12, methyl 4-amino-3-chloro-5-fluoro-6-(7-fluoro-1-(triisopropylsilyl)-1H-indol-6-yl)picolinate]?
Answer: pest or weed control at 35 g/ha [2, 9]: 0 to 29%; pest or weed control at 70 g/ha [2, 9]: 0 to 29%; pest or weed control at 140 g/ha [2, 9]: 0 to 29%; pest or weed control at 35 g/ha [2, 10]: 0 to 29%; pest or weed control at 70 g/ha [2, 10]: 0 to 29%; pest or weed control at 140 g/ha [2, 10]: 85 to 94%; pest or weed control at 35 g/ha [2, 11]: 0 to 29%; pest or weed control at 70 g/ha [2, 11]: 0 to 29%; pest or weed control at 140 g/ha [2, 11]: 0 to 29%; pest or weed control at 35 g/ha [2, 12]: 75 to 84%; pest or weed control at 70 g/ha [2, 12]: 60 to 74%; pest or weed control at 140 g/ha [2, 12]: 75 to 84%; pest or weed control at 35 g/ha [2, 13]: 45 to 59%; pest or weed control at 70 g/ha [2, 13]: 0 to 29%; pest or weed control at 140 g/ha [2, 13]: 0 to 29%; pest or weed control at 35 g/ha [2, 14]: 0 to 29%; pest or weed control at 70 g/ha [2, 14]: 0 to 29%; pest or weed control at 140 g/ha [2, 14]: 0 to 29%; melting point: 181 to 182 °C

Question: With `COC(=O)c1nc(-c2ccc3[nH]nnc3c2)cc(N)c1Cl` [Compound 9.01] as the compound, how does the pest or weed control at 140 g/ha ([2]; Cyperus esculentus, yellow nutsedge (Cyperus esculentus), 14 days after application, read-out: Visual Growth Reduction (%) 14 Days After Application CYPES) read?
Answer: 95 to 100%

Question: What about the pest or weed control at 140 g/ha ([2]; Echinochloa crus-galli, barnyardgrass (Echinochloa crus-galli), 14 days after application, read-out: Visual Growth Reduction (%) 14 Days After Application ECHCG) of the same compound?
Answer: 95 to 100%

Question: What about the pest or weed control at 140 g/ha ([2]; Oryza sativa, rice (Oryza sativa), 14 days after application, read-out: Visual Growth Reduction (%) 14 Days After Application ORYSA) of the same compound?
Answer: 0 to 29%

Question: And the pest or weed control at 140 g/ha ([2]; Setaria faberi, giant foxtail (Setaria faberi), 14 days after application, read-out: Visual Growth Reduction (%) 14 Days After Application SETFA)?
Answer: 0 to 29%

Question: What about the pest or weed control at 140 g/ha ([2]; Triticum aestivum, wheat, spring (Triticum aestivum), 14 days after application, read-out: Visual Growth Reduction (%) 14 Days After Application TRZAS) of the same compound?
Answer: 0 to 29%

Question: And the pest or weed control at 140 g/ha ([2]; Zea mays, maize, corn (Zea mays), 14 days after application, read-out: Visual Growth Reduction (%) 14 Days After Application ZEAMX)?
Answer: 0 to 29%

Question: What about the melting point of the same compound?
Answer: 129 to 133 °C

Question: Which results are given for `Nc1c(F)c(-c2ccc3ccoc3c2)nc(C(=O)O)c1Cl` [Compound 2.08]?
Answer: pest or weed control at 35 g/ha [2, 9]: 0 to 29%; pest or weed control at 70 g/ha [2, 9]: 0 to 29%; pest or weed control at 140 g/ha [2, 9]: 0 to 29%; pest or weed control at 35 g/ha [2, 10]: 85 to 94%; pest or weed control at 70 g/ha [2, 10]: 85 to 94%; pest or weed control at 140 g/ha [2, 10]: 95 to 100%; pest or weed control at 35 g/ha [2, 11]: 0 to 29%; pest or weed control at 70 g/ha [2, 11]: 30 to 44%; pest or weed control at 140 g/ha [2, 11]: 30 to 44%; pest or weed control at 35 g/ha [2, 12]: 45 to 59%; pest or weed control at 70 g/ha [2, 12]: 60 to 74%; pest or weed control at 140 g/ha [2, 12]: 85 to 94%; pest or weed control at 35 g/ha [2, 13]: 0 to 29%; pest or weed control at 70 g/ha [2, 13]: 0 to 29%; pest or weed control at 140 g/ha [2, 13]: 0 to 29%; pest or weed control at 35 g/ha [2, 14]: 45 to 59%; pest or weed control at 70 g/ha [2, 14]: 60 to 74%; pest or weed control at 140 g/ha [2, 14]: 60 to 74%; melting point: 168 to 170 °C
